What was measured:
Format in all cases: in vivo
[1] = system: larvae of the banded cucumber beetle (Diabrotica balteata); assay: Diabrotica balteata spray test; conditions: 168 h, 100 g/ha (=32 μg/well), wheat seeds, after 7 days, read-out: efficacy (seedling growth)
Protocol: Diabrotica Balteata—Spray Test
• Solvent: 78.0 parts by weight of acetone • 1.5 parts by weight of dimethylformamide • Emulsifier: alkylarylpolyglycol ether
Further test concentrations are prepared by dilution with emulsifier containing water.
Soaked wheat seeds (Triticum aestivum) are placed in a multiple well plate filled with agar and some water and are incubated for 1 day to germinate (5 seeds per well). The germinated wheat seeds are sprayed with a test solution containing the desired concentration of the active ingredient. Afterwards each unit is infected with 10-20 larvae of the banded cucumber beetle (Diabrotica balteata).
After 7 days efficacy in % is determined.

[2] = system: fall armyworm larvae (Spodoptera frugiperda); assay: Spodoptera frugiperda spray test (maize leaf sections); conditions: 168 h
Protocol: Spodoptera frugiperda—Spray Test • Solvent: 78.0 parts by weight acetone • 1.5 parts by weight dimethylformamide • Emulsifier: alkylarylpolyglycol ether
(§1) To produce a suitable preparation of active compound, 1 part by weight of active compound is mixed with the stated amount of solvents and is diluted with water, containing an emulsifier concentration of 1000 ppm, to the desired concentration. Further test concentrations are prepared by dilution with emulsifier containing water.
Maize (Zea mays) leaf sections are sprayed with a preparation of the active ingredient of the desired concentration. Once dry, the leaf sections are infested with fall armyworm larvae (Spodoptera frugiperda).
After 7 days mortality in % is determined. 100% means all caterpillars have been killed and 0% means none of the caterpillars have been killed.

[3] = system: Rhipicephalus microplus larvae (strain Parkhurst, resistant against synthetic pyrethroids); assay: Rhipicephalus (Boophilus) microplus in-vitro contact test, larval cattle tick; conditions: 5 μg/cm^2 (=500 g/ha), after 48 hours, read-out: efficacy (larvae dead or moribund)
Protocol: Rhipicephalus (Boophilus) Microplus—In-Vitro Contact Tests Larval Cattle Tick (Strain Parkhurst, Resistant Against Synthetic Pyrethroids)
9 mg compound is solved in 1 mL acetone and diluted with acetone to the desired concentration. 250 μL of the test solution is filled in 25 mL glass test tubes and homogeneously distributed on the inner walls by rotation and tilting on a shaking device (2 h at 30 rpm). With a compound concentration of 900 ppm, an inner surface of 44.7 cm^2 and a homogeneous distribution, a dose of 5 μg/cm^2 is achieved.
After the solvent has evaporated, each test tube is filled with 20-50 cattle tick larvae (Rhipicephalus microplus), closed with a perforated lid and incubated in a horizontal position at 85% relative humidity and 27° C. in an incubator. After 48 hours efficacy is determined. The larvae are patted on the ground of the tubes and negative geotactic behavior is recorded.
An efficacy of 100% means all larvae are dead or moribund; 0% means no larvae are dead or moribund.

[4] = system: adult unfed cat fleas (Ctenocephalides felis); assay: Ctenocephalides felis oral test; conditions: 48 h
Protocol: Ctenocephalides felis—Oral Test
(§2) Solvent: dimethyl sulfoxide
To produce a suitable preparation of active compound, 10 mg of active compound are dissolved in 0.5 mL solvent, and the concentrate is diluted with cattle blood to the desired concentration.
Approximately 20 adult unfed cat fleas (Ctenocephalides felis) are placed in flea chambers. The blood chamber, sealed with parafilm on the bottom, are filled with cattle blood supplied with compound solution and placed on the gauze covered top of the flea chamber, so that the fleas are able to suck the blood. The blood chamber is heated to 37° C. whereas the flea chamber is kept at room temperature.
After 2 days mortality in % is determined. 100% means all the fleas have been killed; 0% means none of the fleas have been killed.

[5] = system: adult engorged female ticks (Rhipicephalus microplus); assay: Rhipicephalus (Boophilus) microplus injection test; conditions: 168 h, 4 μg/animal, egg deposition after 7 days, read-out: efficacy (infertile eggs)
Protocol: Rhipicephalus (Boophilus) Microplus—Injection Test
as §2
To produce a suitable preparation of active compound, 10 mg of active compound are dissolved in 0.5 mL solvent, and the concentrate is diluted with solvent to the desired concentration.
Five adult engorged female ticks (Rhipicephalus microplus) are injected with 1 μL compound solution into the abdomen. The ticks are transferred into replica plates and incubated in a climate chamber.
After 7 days egg deposition of fertile eggs is monitored. Eggs where fertility is not visible are stored in a climate chamber till hatching after about 42 days. An efficacy of 100% means all eggs are infertile; 0% means all eggs are fertile.

[6] = system: green peach aphid (Myzus persicae); assay: Myzus persicae oral test; conditions: 120 h
Protocol: Myzus persicae—oral test • Solvent: 100 parts by weight acetone
To produce a suitable preparation of active compound, 1 part by weight of active compound is mixed with the stated amount of solvent, and the concentrate is diluted with water to the desired concentration. 50 μL compound solution is filled in microtiter plates and 150 μL IPL41 insect medium (33%+15% sugar) is added to obtain a total volume of 200 μL per well. Afterwards the plates are sealed with parafilm through which a mixed population of the green peach aphid (Myzus persicae) can suck on the compound preparation.
(§3) After 5 days mortality in % is determined. 100% means all aphids have been killed and 0% means none of the aphids have been killed.

[7] = system: adult flies Musca domestica strain WHO-N; assay: Musca domestica test (MUSCDO surface treatment & contact assay); conditions: surface concentration 20 mg/m^2, 30 min exposure, 24 hours after contact, read-out: efficacy (mortality)
Protocol: Musca domestica Test (MUSCDO Surface Treatment & Contact Assay) • Solvent: Aceton+2000 ppm rapeseed oil methyl ester (RME)
In order to produce a sufficient, active ingredient containing solution it is necessary to solve the test compound in the solvent-mix (acetone at 2 mg/ml/RME 2000 ppm). This solution is pipetted onto a glazed tile and after evaporation of the acetone, adult flies of the species Musca domestica strain WHO-N are placed onto the dried surface. The exposure time is 30 minutes.
Mortality in percent (%) is determined 24 hours after contact of the insects to the treated surface. 100% mortality means that all tested insects are dead, whereas 0% means that no insect died.

[8] = system: green peach aphid (Myzus persicae); assay: Myzus persicae spray test; conditions: foliar, 120 h, Chinese cabbage leaf disks, after 5 days
Protocol: Myzus persicae—Spray Test • Solvent: 78.0 parts by weight acetone • 1.5 parts by weight dimethylformamide • Emulsifier: alkylarylpolyglycol ether
as §1
Chinese cabbage (Brassica pekinensis) leaf disks infected with all instars of the green peach aphid (Myzus persicae), are sprayed with a preparation of the active ingredient of the desired concentration.
as §3

[9] = system: larvae of the southern green stink bug (Nezara viridula); assay: Nezara viridula spray test; conditions: in Hordeum vulgare, 96 h
Protocol: Nezara viridula—Spray Test • Solvent: 78.0 parts by weight of acetone • 1.5 parts by weight of dimethylformamide • Emulsifier: alkylarylpolyglycol ether
as §1, with “solvent,” for “solvents”, “and the concentrate” for “and”
Barley plants (Hordeum vulgare) are sprayed with a test solution containing the desired concentration of the active ingredient and are infested with larvae of the southern green stink bug (Nezara viridula).
After 4 days mortality in % is determined. 100% means all the stink bugs have been killed; 0% means none of the stink bugs have been killed.

Row | SMILES | pest or weed control at 32 µg/disc, 100 g/ha [1] [%] | mortality at 100 g/ha [2] [%] | pest or weed control at 5 µg/cm2 [3] [%] | mortality at 100 ppm [4] [%] | pest or weed control at 0.004 mg [5] [%] | mortality at 4 ppm [6] [%] | mortality at 20 mg/m2 [7] [%] | mortality at 100 g/ha [8] [%] | mortality at 500 g/ha [9] [%]
1 | Cc1nc([C@H](C)NC(=O)c2cc(C#N)cc(C(F)(F)F)c2)n(-c2ncc(C#N)s2)n1 [I-16] | 100 | 100 | 100 | 100 | 100 | – | – | – | –
2 | CC(NC(=O)c1cc(Br)cc(Br)c1)c1ncnn1-c1ncc(C#N)s1 (stereo not drawn) [I-27] | 100 | – | – | 100 | 100 | – | – | – | –
3 | CC(NC(=O)c1cc(Br)cc(I)c1)c1ncnn1-c1ncc(C#N)s1 (stereo not drawn) [I-29] | – | – | 90 | 100 | 100 | – | – | – | –
4 | CC(NC(=O)c1cc(Cl)cc(S(F)(F)(F)(F)F)c1)c1ncnn1-c1ncc(C#N)s1 (stereo not drawn) [I-32] | 100 | 100 | 90 | 100 | 100 | – | – | – | –
5 | CC(NC(=O)c1cc(OC(F)F)cc(C(F)F)c1)c1ncnn1-c1ncc(C#N)s1 (stereo not drawn) [I-34] | 100 | 100 | 90 | 100 | 100 | 100 | – | – | –
6 | C[C@H](NC(=O)c1cc(Cl)cc(S(C)(=O)=O)c1)c1nc(C2CC2)nn1-c1ncc(C#N)s1 [I-40, 3-chloro-N-{(1S)-1-[1-(5-cyano-1,3-thiazol-2-yl)-3-cyclopropyl-1H-1,2,4-triazol-5-yl]ethyl}-5-(methylsulfonyl)benzamide] | 80 | 100 | – | – | – | 90 | – | – | –
7 | C[C@H](NC(=O)c1cc(Cl)cc(S(=O)(=O)C2CC2)c1)c1nc(C2CC2)nn1-c1ncc(C#N)s1 [I-42] | 100 | 100 | – | – | – | 100 | – | – | –
8 | C[C@H](NC(=O)c1cc(Cl)cc(Br)c1)c1ncnn1-c1ncc(C#N)s1 [I-59] | 100 | 100 | – | – | – | – | 80 to 100 | – | –
9 | Cc1nc([C@H](C)NC(=O)c2cc(Cl)cc(C(F)(F)F)c2)n(-c2ncc(C(=O)NC3CC3)s2)n1 [I-66] | 100 | 100 | 100 | – | 100 | 100 | – | 90 | –
10 | Cc1nc([C@H](C)NC(=O)c2cc(Cl)cc(C(F)(F)F)c2)n(-c2ncc(C(=O)NCC3CC3)s2)n1 [I-67] | 100 | 100 | 100 | – | 100 | 100 | – | – | –
11 | Cc1nc([C@H](C)NC(=O)c2cncc(C(F)(F)F)c2)n(-c2ncc(C(=O)N(C)CC#N)s2)n1 [I-73] | – | – | 100 | – | – | 100 | – | 90 | –
12 | Cc1nc([C@H](C)NC(=O)c2cc(Cl)cc(S(=O)(=O)C3CC3)c2)n(-c2ncc(C(=O)N(C)CC#N)s2)n1 [I-74] | – | – | – | – | – | 100 | – | 90 | –
13 | Cc1nc([C@H](C)NC(=O)c2cc(Cl)cc(S(C)(=O)=O)c2)n(-c2ncc(C(=O)N(C)C)s2)n1 [I-78] | – | – | – | – | – | 100 | – | – | –
14 | Cc1nc([C@H](C)NC(=O)c2cc(Cl)cc(S(C)(=O)=O)c2)n(-c2ncc(C(=O)N(C)CC#N)s2)n1 [I-79] | – | – | – | – | – | 100 | – | – | –
15 | Cc1nc([C@H](C)NC(=O)c2cc(Cl)cc(I)c2)n(-c2ncc(C(=O)N(C)CC#N)s2)n1 [I-81] | 100 | 100 | 100 | – | – | 100 | – | – | –
16 | C[C@H](NC(=O)c1cc(C(F)(F)F)cc(S(C)(=O)=O)c1)c1nc(C2CC2)nn1-c1ncc(C#N)s1 [I-103] | 100 | 100 | – | – | – | – | 80 to 100 | – | 90

Reference: patent US20230065953A1, “NOVEL HETEROARYL-TRIAZOLE COMPOUNDS AS PESTICIDES” (Bayer Aktiengesellschaft, priority 2019, published 2023)
